Measurements from PubChem BioAssay (NCI).
Values joined by “and” are separate entries in the source; they are usually repeats but may differ in a detail not shown here. Equal values may be shown once.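 Interpolation was linear, between the two tested concentrations surrounding the appropriate level; five concentrations were tested over 48 hours in 96-well plates. The concentration for 50% growth inhibition is given as GI50. TGI marks complete inhibition of growth.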

Assays:
Assay in all cases: NCI tumour cell line growth inhibition, 48 h
UO-31 renal = test system: UO-31 renal
RXF 393 renal = test system: RXF 393 renal
SF-539 CNS = test system: SF-539 CNS
SF-268 CNS = test system: SF-268 CNS
COLO 205 colon = test system: COLO 205 colon
HOP-62 NSCLC = test system: HOP-62 NSCLC
TK-10 renal = test system: TK-10 renal
NCI-H23 lung = test system: NCI-H23 lung
PC-3 prostate = test system: PC-3 prostate
M14 melanoma = test system: M14 melanoma
HCT-15 colon = test system: HCT-15 colon
NCI-H522 lung = test system: NCI-H522 lung

| Compound | TGI (UO-31 renal) | TGI (RXF 393 renal) | TGI (SF-539 CNS) | TGI (SF-268 CNS) | GI50 (COLO 205 colon) | TGI (COLO 205 colon) | GI50 (HOP-62 NSCLC) | TGI (HOP-62 NSCLC) | GI50 (TK-10 renal) | TGI (TK-10 renal) | TGI (NCI-H23 lung) | TGI (PC-3 prostate) | TGI (M14 melanoma) | GI50 (HCT-15 colon) | TGI (HCT-15 colon) | GI50 (NCI-H522 lung) | TGI (NCI-H522 lung) | GI50 (UO-31 renal) | GI50 (M14 melanoma) |
| --- | --- | --- | --- | --- | --- | --- | --- | --- | --- | --- | --- | --- | --- | --- | --- | --- | --- | --- | --- |
| COC(=O)/C=C/c1cc(OC)c2c(c1)C(C(=O)OC)C(c1ccc(O)c(OC)c1)O2 (configuration not stated) | > 43.7 µM and 45.1 µM and 77.2 µM | 9.76 µM and 7.8 µM and > 43.6 µM | 9.24 µM and 8.25 µM and 10.4 µM | > 100 µM | 17 µM and 13.1 µM and 7.32 µM | 35.4 µM and 26.4 µM and 25.8 µM | 12 µM and 5.12 µM and 7.2 µM | > 100 µM | 47.5 µM and 15.6 µM and 15.3 µM | > 100 µM | > 100 µM and 13 µM and 56.5 µM | > 100 µM | > 100 µM | 2.74 µM and 1.52 µM and 0.629 µM | > 100 µM and > 53.7 µM and 56.6 µM | 3.96 µM and 3.17 µM and 1.92 µM | > 27.5 µM and 25.5 µM and 8.16 µM |  |  |
| FC(F)(F)c1ccc(N=NN2CCCC2)cc1 | > 100 µM | > 100 µM | > 100 µM | > 100 µM |  | > 100 µM |  | > 100 µM |  | > 100 µM | > 100 µM | > 100 µM | > 100 µM |  | > 100 µM |  | > 100 µM |  |  |
| CCOc1ccnc2c(OC)c(C)c3nc4ccccc4nc3c12 | > 100 µM | > 100 µM | > 100 µM | > 100 µM |  | > 100 µM |  | > 100 µM |  | > 100 µM | > 100 µM | > 100 µM | > 100 µM |  | > 100 µM |  | > 100 µM |  |  |
| Oc1ccccc1/C=N/N1C(=S)N(c2ccccc2)C(=Nc2ccccc2)C1=Nc1ccccc1 | 33.1 µM | 18.1 µM | 17.9 µM | 26.7 µM |  | 11.3 µM |  | 22.6 µM |  | 20.8 µM | 24.9 µM | 47.2 µM | 28.7 µM |  | > 100 µM |  | 12.6 µM |  |  |
| CCOC1=NC(C(F)(F)F)(C(F)(F)F)N=C(/N=C(/N)N(C)C(C(C)C)P(=O)(OC(C)C)OC(C)C)O1 (configuration not stated) | > 100 µM | > 100 µM | > 100 µM | > 100 µM |  | > 100 µM |  | > 100 µM |  | > 100 µM | > 100 µM | > 100 µM | > 100 µM |  | > 100 µM |  | 93.3 µM |  |  |
| O=C(O)COc1cccc2ccccc(=O)c12 | > 100 µM | > 100 µM | > 100 µM | > 100 µM |  | > 100 µM |  | > 100 µM |  | > 100 µM | > 100 µM | > 100 µM | > 100 µM |  | > 100 µM |  | > 100 µM |  |  |
| [B]C(=O)NC(CC(C)C)C(=O)NC1c2ccsc2C(=O)C1O (configuration not stated) (tested in a mixture with another compound) | > 100 µM | > 100 µM | > 100 µM | > 100 µM |  | > 100 µM |  | > 100 µM |  | > 100 µM | > 100 µM | > 100 µM | > 100 µM |  | > 100 µM |  | > 100 µM |  |  |
| CN1CCN2CCN(C)CCN(CC1)CC2 | > 100 µM | > 100 µM | > 100 µM | > 100 µM |  | > 100 µM |  | > 100 µM |  | > 100 µM | > 100 µM | > 100 µM | > 100 µM |  | > 100 µM |  | > 100 µM |  |  |
| ClC1(Cl)C2CCOC21n1cnc2ccccc21 (configuration not stated) | > 100 µM | > 100 µM | > 100 µM | > 100 µM |  | > 100 µM |  | > 100 µM |  |  | > 100 µM | > 100 µM | > 100 µM |  | > 100 µM |  | > 100 µM |  |  |
| CNC(=S)c1nnsc1N | > 100 µM | > 100 µM | > 100 µM | > 100 µM |  | > 100 µM |  | > 100 µM |  | > 100 µM | > 100 µM | > 100 µM | > 100 µM |  | > 100 µM |  | > 100 µM |  |  |
| COc1ccc(-c2c(C#N)c(N)n(C3OC(COC(C)=O)C(OC(C)=O)C(OC(C)=O)C3OC(C)=O)c(=S)c2C#N)cc1 (configuration not stated) | > 100 µM and 38.9 µM | 84.6 µM and 72.2 µM | 67.5 µM and > 100 µM | > 100 µM and 88.3 µM | > 100 µM and 21.2 µM | > 100 µM and 43.2 µM |  | 89.1 µM and 51.6 µM | 50.5 µM and 21.9 µM | > 100 µM and 49.3 µM | > 100 µM | > 100 µM | > 100 µM |  | > 100 µM |  | > 100 µM and 52.6 µM | 42.4 µM and 16.7 µM | > 100 µM and 28.4 µM |
| CCN(CC)C(=O)N1CN(c2ccccc2)C2(CCN(CCCC3(c4ccc(F)cc4)OCCO3)CC2)C1=O | 35.9 µM | 27.8 µM | 32 µM | 45.5 µM |  | 15.2 µM |  | 18.6 µM |  | 38.7 µM | 36.6 µM | 34.9 µM | > 100 µM |  | 32.3 µM |  | 30.2 µM |  |  |
| O=[N+]([O-])c1cc(C2ON=C(c3ccccc3)N2C23CC4CC(CC(C4)C2)C3)ccc1Cl (configuration not stated) | > 100 µM | > 100 µM | > 100 µM | > 100 µM |  | > 100 µM |  | > 100 µM |  | > 100 µM | > 100 µM | > 100 µM | > 100 µM |  | > 100 µM |  | > 100 µM |  |  |
| O=C(CCCN1CCC(Nc2ccc(F)cc2)(c2nnnn2C2CCCCC2)CC1)c1ccc(F)cc1 | 28.4 µM | 25.5 µM | 30.5 µM | 33.9 µM |  | 37.1 µM |  | 33.6 µM |  | 29.4 µM | 29 µM | 51.8 µM | 32.4 µM |  | 42.4 µM |  | 29.8 µM |  |  |
| Cc1ccc(S(=O)(=O)N/N=C2/C3CC4CCC2C4C3)cc1 (configuration not stated) | > 100 µM | > 100 µM | > 100 µM | > 100 µM |  | > 100 µM |  | > 100 µM |  | > 100 µM | > 100 µM | > 100 µM | > 100 µM |  | > 100 µM |  | > 100 µM |  |  |
| CC1=NN(c2cccc(S(=O)(=O)O)c2)C2(C1)SCC(=O)N2c1nc2ccccc2s1 (configuration not stated) | > 100 µM | > 100 µM | > 100 µM | > 100 µM |  | > 100 µM |  | > 100 µM |  | > 100 µM | > 100 µM | > 100 µM | > 100 µM |  | > 100 µM |  | > 100 µM |  |  |
| COc1ccc(/C=C2/C(=O)C(c3ccccc3)N(c3ccccc3)C2=O)cc1OC (configuration not stated) | > 10 µM | > 10 µM | > 10 µM | > 10 µM |  | > 10 µM |  | > 10 µM |  | > 10 µM | > 10 µM | > 10 µM | > 10 µM |  | > 10 µM |  | > 10 µM |  |  |
